The text below walks through data of patent US10457687B2, “Aminoacid derivatives, a process for their preparation and pharmaceutical compositions containing them” (LES LABORATOIRES SERVIER, priority 2015, dated 2019).

Molecules are shown by their SMILES.

Mcl-1 protein, sequence (Q07820 whole entry): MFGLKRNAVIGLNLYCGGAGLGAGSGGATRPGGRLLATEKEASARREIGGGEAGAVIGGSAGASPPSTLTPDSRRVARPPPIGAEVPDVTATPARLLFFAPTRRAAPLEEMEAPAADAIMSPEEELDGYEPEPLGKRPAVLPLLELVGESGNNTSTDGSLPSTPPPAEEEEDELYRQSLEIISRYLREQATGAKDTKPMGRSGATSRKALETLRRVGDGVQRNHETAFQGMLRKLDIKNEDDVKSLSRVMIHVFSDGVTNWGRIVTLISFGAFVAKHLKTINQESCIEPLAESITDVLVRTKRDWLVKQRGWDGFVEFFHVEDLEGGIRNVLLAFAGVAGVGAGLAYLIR

One assay has as its target Mcl-1 protein (Homo sapiens, UniProt Q07820). As to the kind of experiment: Inhibition of Mcl-1 by the fluorescence polarisation technique (Method 1 or Method 2). In kind it is binding. Conditions: fluorescence polarisation, Fluorescein labelled ligand; Method 1 (not underlined) or Method 2 (underlined); read-out: IC50 (μM) Mcl-1 FP. The method in brief: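 Fluorescence polarisation competition of 11-point compound dilutions (5% DMSO final) against fluorescein-labelled ligand for Mcl-1. Method 1: 1 nM ligand, 5 nM protein in 10 mM HEPES, 150 mM NaCl, 0.05% Tween 20, pH 7.4; Method 2: 10 nM ligand, 10 nM protein in 20 mM Na2HPO4, 1 mM EDTA, 50 mM NaCl, pH 7.4.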
On the technique in general: Fluorescence polarisation rises when a labelled molecule tumbles more slowly, as on binding a larger partner.
As for `CCc1sc2ncnc(NC(Cc3ccccc3)C(=O)O)c2c1-c1cccc2ccn(C)c12` [Example 84, N-[6-ethyl-(5Ra)-5-(1-methyl-1H-indol-7-yl)thieno[2,3-d]pyrimidin-4-yl]-D-phenylalanine], the IC50 (commonly the concentration that gives 50% inhibition) was found to be 4.02 µM.
On the same count and under the same terms, in the case of `CCc1sc2ncnc(NC(Cc3ccccc3[N+](=O)[O-])C(=O)O)c2c1-c1cccc(Cl)c1C` [Example 136, N-[(5Sa)-5-(3-chloro-2-methylphenyl)-6-ethylthieno[2,3-d]pyrimidin-4-yl]-2-nitro-D-phenylalanine] it was 0.146 µM; in that of `CCc1sc2ncnc(N[C@@H](C(=O)O)c3ccccc3)c2c1-c1cccc2ccccc12` (single isomer, unassigned) [Example 161], 12.6 µM.
Same read-out and setting: in the case of `CCc1sc2ncnc(N[C@H](CC3CCCCC3)C(=O)O)c2c1-c1cccc2[nH]ccc12` (single isomer, unassigned) [Example 243, 3-cyclohexyl-N-[6-ethyl-5-(1H-indol-4-yl)thieno[2,3-d]pyrimidin-4-yl]-D-alanine] it was 0.073 µM; in that of `CCc1sc2ncnc(NC(Cc3ccccc3)C(=O)O)c2c1-c1cccc2[nH]ccc12` [Example 73, N-[6-ethyl-(5Sa)-5-(1H-indol-4-yl)thieno[2,3-d]pyrimidin-4-yl]-D-phenylalanine], 0.276 µM; in that of `O=C(O)[C@@H](Cc1ccccc1)Nc1ncnc2sc(I)c(-c3cccc4ccccc34)c12` [Example 211, N-[6-iodo-5-(naphthalen-1-yl)thieno[2,3-d]pyrimidin-4-yl]-D-phenylalanine], 0.668 µM.
On to `CCc1sc2ncnc(NC(Cc3ccccc3)C(=O)O)c2c1-c1cncc2ccccc12` [Example 82, N-[6-ethyl-(5Ra)-5-(isoquinolin-4-yl)thieno[2,3-d]pyrimidin-4-yl]-D-phenylalanine], for which the IC50 turned out to be 1.11 µM.
On the same count and under the same terms, the figure for `CCc1sc2ncnc(NC(Cc3ccccc3C(N)=O)C(=O)O)c2c1-c1cccc(Cl)c1C` [Example 134, 2-carbamoyl-N-[(5Sa)-5-(3-chloro-2-methylphenyl)-6-ethylthieno[2,3-d]pyrimidin-4-yl]-D-phenylalanine] is 0.176 µM; for `CCc1sc2ncnc(NC(Cc3ccccc3)C(=O)O)c2c1-c1ccc(OCCN(C)C)c(Cl)c1C` [Example 59, N-((5Sa)-5-{3-chloro-4-[2-(dimethylamino)ethoxy]-2-methylphenyl}-6-ethylthieno[2,3-d]pyrimidin-4-yl)-L-phenylalanine] it is 0.127 µM.
On the same count and under the same terms, in the case of `CCCc1sc2ncnc(NC(Cc3ccccc3)C(=O)O)c2c1-c1cccc2ccccc12` [Example 252, N-[(5Sa)-5-(naphthalen-1-yl)-6-propylthieno[2,3-d]pyrimidin-4-yl]-D-phenylalanine] it was 0.223 µM.
The same measure, in the same setting: the figure for `CCc1sc2ncnc(NC(Cc3ccccc3OCc3cccc(Cl)c3)C(=O)O)c2c1-c1cccc(Cl)c1C` [Example 150, 2-[(3-chlorobenzyl)oxy]-N-[(5Sa)-5-(3-chloro-2-methylphenyl)-6-ethylthieno[2,3-d]pyrimidin-4-yl]-D-phenylalanine] is 0.528 µM.
On to `CCc1sc2ncnc(NC(Cc3ccccc3)C(=O)O)c2c1-c1ccc(OCCO)c(Cl)c1C` [Example 56, N-{(5Sa)-5-[3-chloro-4-(2-hydroxyethoxy)-2-methylphenyl]-6-ethylthieno[2,3-d]pyrimidin-4-yl}-D-phenylalanine], for which the IC50 is 0.019 µM.
The same measure, in the same setting: the figure for `CCc1sc2ncnc(NC(Cc3ccccn3)C(=O)O)c2c1-c1cccc2c1c(Cl)cn2CCN1CCN(C)CC1` [Example 248, N-((5Sa)-5-{3-chloro-1-[2-(4-methylpiperazin-1-yl)ethyl]-1H-indol-4-yl}-6-ethyl-thieno[2,3-d]pyrimidin-4-yl)-3-pyridin-2-yl-D-alanine] is 2.18 µM; for `CCc1sc2ncnc(N[C@H](Cc3cccc4ccccc34)C(=O)O)c2c1-c1cccc2ccccc12` (single isomer, unassigned) [Example 187, N-[6-ethyl-5-(naphthalen-1-yl)thieno[2,3-d]pyrimidin-4-yl]-3-naphthalen-1-yl-D-alanine] it is 1.39 µM.
Still for that read-out and setting: in the case of `CCc1sc2ncnc(N[C@H](Cc3ccccc3C)C(=O)O)c2c1-c1cccc2ccccc12` (single isomer, unassigned) [Example 168, N-[6-ethyl-5-(naphthalen-1-yl)thieno[2,3-d]pyrimidin-4-yl]-2-methyl-D-phenylalanine] it was 4.78 µM; in that of `CCc1sc2ncnc(N[C@H](Cc3ccccc3)C(=O)O)c2c1-c1cccc2cc[nH]c12` (single isomer, unassigned) [Example 72, N-[6-ethyl-5-(1H-indol-7-yl)thieno[2,3-d]pyrimidin-4-yl]-D-phenylalanine], 12 µM; in that of `CCc1sc2ncnc(NC(Cc3ccccc3)C(=O)O)c2c1-c1cccc2c1c(Cl)cn2CCN1CCN(C)CC1` [Example 238, N-((5Sa)-5-{3-chloro-1-[2-(4-methylpiperazin-1-yl)ethyl]-1H-indol-4-yl}-6-ethyl-thieno[2,3-d]pyrimidin-4-yl)-D-phenylalanine], 2.78 µM.

The same assay, now with this note: partial inhibitors; @ 10 μM test compound.
With `CCc1sc2ncnc(N[C@H](Cc3ccccc3)C(=O)O)c2c1-c1ccc(OCCN2CCN(C)CC2)c(Cl)c1C` [Example 63, N-((5Ra)-5-{3-chloro-2-methyl-4-[2-(4-methylpiperazin-1-yl)ethoxy]phenyl}-6-ethylthieno[2,3-d]pyrimidin-4-yl)-D-phenylalanine], the “percentage fluorescence polarisation inhibition, Mcl-1 FP” value turned out to be 12.18% @ 10 μM.
Still for that read-out and setting: in the case of `Cc1c(-c2c(-c3ccsc3)sc3ncnc(NC(Cc4ccccc4F)C(=O)O)c23)ccc(OCCN2CCN(C)CC2)c1Cl` [Example 33, N-[(5Ra)-5-{3-chloro-2-methyl-4-[2-(4-methylpiperazin-1-yl)ethoxy]phenyl}-6-(thiophen-3-yl)thieno[2,3-d]pyrimidin-4-yl]-2-fluoro-D-phenylalanine] it was 54.9% @ 10 μM.
Same read-out and setting: the figure for `CCc1sc2ncnc(N[C@H](Cc3ccccc3Br)C(=O)O)c2c1-c1cccc(Cl)c1C` [Example 139, 2-bromo-N-[(5Ra)-5-(3-chloro-2-methylphenyl)-6-ethylthieno[2,3-d]pyrimidin-4-yl]-D-phenylalanine] is 32.75% @ 10 μM.

The same assay, now with this note: partial inhibitors; @ 50 μM test compound.
For `CCc1sc2ncnc(N[C@H](Cc3ccccc3)C(=O)O)c2c1-c1cccc2c1c(Cl)cn2CCN1CCCC1` [Example 232, N-((5Ra)-5-{3-chloro-1-[2-(pyrrolidin-1-yl)ethyl]-1H-indol-4-yl}-6-ethyl-thieno[2,3-d]pyrimidin-4-yl)-D-phenylalanine], the “percentage fluorescence polarisation inhibition, Mcl-1 FP” value was 62.2% @ 50 μM.
On the same count and under the same terms, in the case of `CCc1sc2ncnc(N[C@H](Cc3ccccc3C(F)(F)F)C(=O)O)c2c1-c1cccc(Cl)c1C` [Example 137, N-[(5Ra)-5-(3-chloro-2-methylphenyl)-6-ethylthieno[2,3-d]pyrimidin-4-yl]-2-(trifluoromethyl)-D-phenylalanine] it was 71.05% @ 50 μM.

Staying with this assay, now noted: partial inhibitors; @ 200 μM test compound.
Take `CCc1sc2ncnc(N[C@H](Cc3ccccc3)C(=O)OC)c2c1-c1cccc2ccccc12` [Example 254, methyl N-[6-ethyl-(5Sa)-5-(naphthalen-1-yl)thieno[2,3-d]pyrimidin-4-yl]-D-phenylalaninate]: the “percentage fluorescence polarisation inhibition, Mcl-1 FP” value was determined as 22.08% @ 200 μM.
